Among the data in a melting point compilation (Tetko et al.) are melting point values, retold here.

By melting point is commonly meant the temperature of the solid-liquid transition. In turn, `CCOC(=O)c1cc(C(=O)O)c([N+](=O)[O-])cc1[N+](=O)[O-]` displayed a melting point of 154 °C. In the case of `O=C(O)c1cc(F)c(Cl)cc1F` it was 153 to 158 °C; in that of `N#CC1(O)CN2CCC1CC2` (configuration not stated), 156 to 159 °C.

In the case of `c1ccc2c(c1)OCCOCCOCCOc1ccccc1OCCO2`, the melting point lay in the range of 117 to 120 °C. Compound `CCCC#CCCCC(=O)O` yielded a melting point of -3 °C. In the case of `Nc1cccc2nonc12` it was 109 to 111 °C; in that of `COc1cc(C=O)ccc1OC(C)=O`, 76 °C. In the case of `Cn1cccc1C(=O)O` it was 137 °C. In the case of `COc1c(Cl)cc([N+](=O)[O-])cc1Cl` it was 97 to 100 °C. `COc1ccc(CNC(N)=S)cc1` yielded a melting point of 135 to 137 °C. In the case of `C#CCC1(OC(N)=O)CCCCC1` it was 99 °C; in that of `c1cocn1`, -86 °C.

In the case of `O=C(O)CCN1CCNCC1`, the melting point was 71 to 86 °C. In turn, `O=C(O)c1cnc2ccc(OC(F)(F)F)cc2c1O` gave a melting point of 245 °C.

The compound `Cc1cc(N(C)C)ccc1N=Nc1ccccc1` registered a melting point of 68 °C. In the case of `CCNC1=NC(=O)C(c2ccccc2)O1` (configuration not stated) it was 148 °C; in that of `O=[N+]([O-])c1cc(Br)cnc1Cl`, 64 to 67 °C.

As for `CC(C)(CO)NCC(O)CS(=O)(=O)O` (configuration not stated), the melting point fell in the range of 215 to 225 °C. `Cc1cc(C(F)(F)F)n2nc(-c3ccc(Cl)cc3)cc2n1` returned a melting point of 176 °C. In the case of `N#Cc1c(F)cccc1Cl` it was 58 °C; in that of `CC(=O)OCC(=O)c1ccccc1`, 49 °C; in that of `CNC(=O)Oc1ccc2c(c1)C1(C)CCN(C)C1N2C` (configuration not stated), 106 °C. As to `CC1=C(O)C(=O)CC1`, the melting point amounted to 106 °C. In the case of `OC1(c2ccccc2)c2ccccc2-c2ccccc21` it was 107 to 110 °C; in that of `Clc1ncnc2sc3c(c12)CCC3`, 108 to 110 °C. In the case of `O=C(O)c1cc2cc(F)ccc2[nH]1` it was 254 to 258 °C. As to `N#Cc1cc([N+](=O)[O-])cc([N+](=O)[O-])c1`, the melting point turned out to be 129 °C. In turn, `CC12C=CC(CC1)C2(C)C` (configuration not stated) registered a melting point of 113 °C. Take `O=C1Cc2cccc(Br)c21`: the melting point was in the range of 81.5 to 83 °C. In the case of `Cc1cc(C)c(C)c(O)c1C` it was 118 °C. In the case of `N#Cc1ccccc1C#N` it was 140 °C; in that of `NC(=O)c1cc(C(=O)CN(Cc2ccccc2)Cc2ccccc2)ccc1O`, 168 °C. In the case of `O=C(/C=C/Nc1ccccc1)c1ccc2c(c1)CCCC2` it was 175 °C; in that of `CCOc1ccc(Br)cc1C=O`, 69 °C. As to `O=C(Cl)c1cccc2nsnc12`, the melting point lay within 110 to 114 °C. With `O=Cc1ccc(OCc2ccccc2)c(OCc2ccccc2)c1`, the melting point was 88 to 92 °C. In the case of `CC(C(C#N)C(N)=O)C(C#N)C(N)=O` (configuration not stated) it was 151 to 160 °C; in that of `O=Cc1cccn1-c1ccc(Cl)cc1`, 92 to 96 °C; in that of `CN1C(=O)c2ccccc2C1O` (configuration not stated), 133 °C.

As to `O=C1CCC(c2ccccc2)=NN1c1n[nH]c(=S)n1-c1ccccc1`, the melting point is 180 to 182 °C. In the case of `Oc1cc(F)cc(F)c1F` it was 29 °C; in that of `Nc1c(Br)cc(Br)cc1C(O)c1ccccc1` (configuration not stated), 152 °C; in that of `COc1cccc(C=Nc2n[nH]c(N=Cc3cccc(OC)c3O)c2Cc2ccc(Cl)cc2)c1O`, 261 to 263 °C.

The compound `O=C(Cl)c1cccc(C(Cl)Cl)c1` came in with a melting point of 57 to 63 °C. In the case of `NN1CCN(CCO)CC1` it was 102 to 107 °C. In the case of `O=C(O)c1cnc(NCc2ccccc2)s1` it was 163 to 164 °C; in that of `CCCCCCCCCCCCCCCc1ccccc1`, 22 °C; in that of `CN(C)C(=O)CCCOC(=O)c1ccccc1`, 40.5 °C. In the case of `Cc1cc(CO)c(O)c(CO)c1` it was 129 °C; in that of `CC(=O)c1nn2c(C(F)(F)F)nnc2s1`, 200 °C. As to `FC(F)(F)C(F)(F)C(F)(F)C(F)(F)C(F)(F)F`, the melting point is -100 °C. In the case of `Nc1ccc(CN2CCOCC2)cc1` it was 99 to 100 °C; in that of `CN(C)c1ccc(N=c2cc(-c3ccccc3)oc(-c3ccccc3)c2)cc1`, 148 °C; in that of `Clc1nc(-c2ccccc2)nc2ccccc12`, 123 to 128 °C. In the case of `O=C1C2CCC1C1CCC2O1` it was 81 °C.

The compound `O=Cc1ccc(-c2ccncc2)cc1` showed a melting point of 101 to 104 °C.

For the compound `CN(C)C=C(C=O)c1ccccc1[N+](=O)[O-]`, the melting point is 119 to 120 °C. In the case of `Nc1cccc(C(F)(F)F)n1` it was 88 °C.

`CC1CCC(C(C)C)C(OC(=O)C2=CCC(C(=O)OC3CC(C)CCC3C(C)C)=CC2)C1` (configuration not stated) registered a melting point of 68 °C. In the case of `CCOc1ccc(-c2nnc3n2NC(c2ccccc2)S3)cc1` (configuration not stated) it was 118 °C; in that of `CCc1c[nH]c(=O)[nH]c1=O`, 309 °C; in that of `O=c1occcc1O`, 93.8 °C.

Turning to `c1ccc(-c2ccccc2-c2ccccc2-c2ccccc2)cc1`, the melting point amounted to 118 °C. Consider `Cc1nccc(-c2cccc(S(=O)(=O)Cl)c2)n1`, for which the melting point fell in the range of 174 to 175 °C.

In turn, `CC(C)CC1(NC(=O)c2ccccc2)COCOC1=O` (racemic) showed a melting point of 100 to 102 °C. In the case of `O=C(c1ccncc1)c1ccc(Cl)cc1` it was 108 °C; in that of `O=C(Nc1ccc(Br)cc1)C(C(F)(F)F)C(F)(F)F`, 186 °C. Compound `COc1ccc(Nc2ccc(OC)cc2)cc1` registered a melting point of 102 °C. In the case of `Nc1ccc(OC2CCOCC2)cc1`, the melting point lay in the range of 71 to 73 °C.

With `CCCCc1ccc(/N=N/c2ccc(OCCC)cc2)cc1`, the melting point was in the range of 66 to 68 °C. `O=C(c1ccc(Cl)c([N+](=O)[O-])c1)C1CC1`: the melting point was in the range of 78 to 80 °C. For `CN(C)CCC(O)(c1ccccc1)c1ccccc1Cl` (configuration not stated), the melting point was found to be 120 °C.

For `O=c1n(CCCN2CCN(c3cccc(Cl)c3)CC2)nc2ccccn12`, the melting point was 87 °C. `CCCCCCN1CC(C(=O)O)CC1=O` (configuration not stated) had a melting point of 42.5 °C. The compound `O=C(O)CN(CCN(CC(=O)O)CC(=O)O)CC(=O)O` returned a melting point of 220 °C. Turning to `Brc1cccc2c1Oc1ccccc1O2`, the melting point was 104 °C.

On to `C=Cc1ccc(C)cc1`, for which the melting point is -34 °C.

In turn, `NC(=O)CS(=O)C(c1ccccc1)c1ccccc1` (configuration not stated) yielded a melting point of 164 °C.

For the compound `Nc1ccccc1/C=C/c1nc2ccccc2[nH]1`, the melting point came to 213 °C. In the case of `O=Cc1cc(I)ccc1F` it was 44 °C; in that of `O=C(NC1CCN(Cc2ccccc2)C1)C(F)(F)F` (configuration not stated), 71 °C; in that of `Nc1ccc([N+](=O)[O-])cc1C(F)(F)F`, 92 °C.
